Where a name gives a salt, the structure may show the parent alone.
Key:
[1] = tested on: human subjects
[2] = tested on: human subjects; type: in vivo
Procedure: Five human subjects were given 100-600 mg hexylamine succinate each day over a period of a month or four weeks (see Table 1).
Over the course of the treatment period, two of the subjects who ingested hexylamine daily experienced a weight loss of 3 pounds without making any changes to their diet or exercise regimen. With the administration of 600 mg hexylamine succinate (equaling 276 mg of hexylamine base), the subjects' body temperature would rise by about 0.5° C.
None of the subjects experienced any of the toxic side effects described for too much exposure hexylamine, which include, burning sensation, abdominal pain, shock, or collapse. However, the effectiveness would diminish with doses less than 100 mg.

[3] = tested on: human; conditions: cited from earlier work
[4] = tested on: human subjects; assay: Iowa trail making test; type: in vivo; conditions: 1000 mg tri-hexylamine citrate oral vs placebo
From the text: The Iowa trail making test assesses visual attention and task switching. In map A, the subject is to draw lines to connect circled numbers in a numerical sequence (1-2-3- . . . ) as rapidly in possible. In map B, the subject is to draw lines to connect circled numbers and letters in an alternating numeric and alphabetic sequence (1-A-2-B- . . . ) as rapidly as possible. Accordingly, map A assesses cognitive processing speed, while map B asses executive function. If the subject makes an error, it was immediately pointed it out and the subject was allowed correct it. Accordingly, errors affect the score only in that the correction of errors is included in the completion time for the task. […] Thus, hexylamine administration improves executive function.

[5] = standard temperature and pressure; cited from earlier work
[6] = cited from earlier work
[7] = Physiological effects of propylamine and amylamine; type: in vivo; conditions: doses starting at 300 mg
From the text: Propylamine, […], a close chemical entity to hexylamine, has been used in the distant past as a sedative at doses of 2-10 grams (Page 892 of The Standard Medical Directory of North America 1902, GP Engelhard and Company, Chicago). […] Accordingly, compound having similar structure to hexylamine were expected to reduce alertness and cognitive function due to their sedative effects (from de facto slowdown of brain activity).

[8] = Citrate salts left exposed to air for one day; type: physicochemical
From the text: FIG. 2 depicts a comparison of monohexylamine citrate and tri-hexylamine citrate after being left exposure to air for one day.

[9] = Pharmacotechnical properties of synthesized hexylamine salts (state, hygroscopicity, solubility, dissolution, stability)
[10] = Shelf life comparison, salts left exposed to air for a month; type: physicochemical
From the text: FIG. 1 depicts a comparison of hexylamine succinate and hexylamine tartrate after being left exposed to air for a period of a month.
Hexylamine succinate and hexylamine tartrate were left exposed for a period of a month.

[11] = tested on: human subjects; assay: Administration of […] and caffeine, caffeine side effects; conditions: same subjects, 300 mg caffeine alone
[12] = Organoleptic properties and contact irritation of hexylamine and its salts
[13] = tested on: human subject; assay: Human tolerance of hexylamine succinate; type: in vivo; conditions: one subject, 250 lbs, daily dose increased from 100 mg
Procedure: A human subject (250 lbs) was administered a single 100 mg hexylamine succinate, and their tolerance to the salt was record. The daily dose was increased increased daily to determine the highest daily dose that could be tolerance by the subject. At a daily dose of 800 mg and higher, the subject reported side effects such as feelings of discomfort.

[14] = Storage of hexylamine succinate in the atmosphere, water gain; type: physicochemical; conditions: over one week of storage
Procedure: Hexylamine succinate (structure shown in Formula II) was effectively synthesized by pouring an equimolar amount of hexylamine into succinic acid powder while continuously stirring in an ice bath so that the temperature of the salt solution would be […].

[15] = tested on: human subjects; assay: Activity of hexylamine salt forms on human subjects; type: in vivo; conditions: taken as a capsule, compared with other salts of hexylamine
[16] = tested on: human subjects; assay: Psychomotor vigilance test via sleep-2-Peak mobile application; type: in vivo; conditions: 1000 mg oral vs placebo, p=0.0015
From the text: Statistically significant results were obtained from the cognitive function tests.

[17] = Time course of tri-hexylamine citrate in water; type: physicochemical; conditions: one gram scattered over 100 ml water at room temperature
Procedure: FIG. 3 depicts a time course of tri-hexylamine citrate in water. One gram of tri-hexylamine citrate was scattered over 100 ml water at room temperature (left). About one minute after, all of the tri-hexylamine citrate was dissolved (right).

[18] = tested on: human subjects; assay: Effect of tri-hexylamine citrate on physical performance; type: in vivo; conditions: four subjects, 1000 mg 30 minutes before exercise
Procedure: Four human subjects ingested 1000 mg tri-hexylamine citrate 30 minutes before performing their regular exercise.

[19] = five subjects, 100-600 mg each day for a month

Structure (SMILES): CCCCCCN [Hexylamine]
- discomfort or serious side effects ([1]; twelve healthy subjects, 1000 mg oral, blinded crossover vs placebo): None of the subjects experienced any discomfort or any serious side effect
- tolerability ([2]; five subjects, none had toxic side effects (burning sensation, abdominal pain, shock, collapse)): generally well-tolerated
- dose below which the effectiveness would diminish ([2]; human, in vivo): less than 100 mg
- weight loss ([2]; two of the subjects, daily ingestion over the treatment period, no change of diet or exercise): 3 pounds
- toxicity label ([3]; Phytochemical Dictionary, second edition): highly toxic in any quantity
- blood pressure and other physiological effects ([3]; administered to a human (Alles 1941)): no change in blood pressure or any other physiological effect was observed
- average completion time, map A ([4]; not statistically significant): reduced the average time
- change of average completion time, map B ([4]; p=0.0020): -12.5 s
- solubility in organic solvents [5]: soluble in almost all organic solvents

Structure (SMILES): CCCN [Propylamine]
- physiological use ([6]; doses of 2-10 grams (Standard Medical Directory of North America 1902)): sedative

Structure (SMILES): CCCCCN [amylamine, Amylamine]
- body temperature [7]: a drop in body temperature
- heart rate [7]: reduction in heart rate
- cardiac function, heartbeat and body temperature ([6]; King's American Dispensatory 1909): reduce cardiac function, reduce heartbeat, and reduce body temperature

Structure (SMILES): CCCCCCN.O=C(O)CC(O)(CC(=O)O)C(=O)O [mono-hexylamine citrate]
- state of the salt [8]: hardened into a solid mass
- dissolution rate in water [9]: much slower dissolution rate in water
- hygroscopicity [9]: very hygroscopic

Structure (SMILES): CCCCCCN.O=C(O)C(O)C(O)C(=O)O (stereo not shown) [hexylamine tartrate]
- state of the powder and moisture uptake [10]: absorbed moisture from the atmosphere and suffered from extensive caking

Structure (SMILES): Cn1c(=O)c2c(ncn2C)n(C)c1=O [caffeine]
- jittery sensation or caffeine crash [11]: experience at leas tone of these side effects

Structure (SMILES): O=[N+]([O-])O [nitrate]
- effect on contact with skin, tongue or mouth [12]: very irritating on contact with the skin or mouth

Structure (SMILES): CCCCCCN.O=C(O)CCC(=O)O [Hexylamine succinate]
- daily dose at which side effects such as feelings of discomfort were reported [13]: ≥ 800 mg
- hygroscopicity [14]: non-hygroscopic
- water gained in the atmosphere [14]: less than 1%
- rise of body temperature ([2]; 600 mg hexylamine succinate (276 mg hexylamine base)): about 0.5 °C
- appetite [2, 19]: reduced appetite
- athletic performance [2, 19]: increase in athletic performance
- body temperature [2, 19]: increased body temperature
- endurance [2, 19]: increase in endurance
- fatigue [2, 19]: reduction of fatigue
- heart rate [2, 19]: increase in heart rate
- increase in diastolic blood pressure, average [2, 19]: 2 mm
- increase in systolic blood pressure, average [2, 19]: 8 mm
- memory recollection [2, 19]: improved memory recollection
- mental acuity [2, 19]: increased mental acuity
- mood [2, 19]: improved mood
- strength [2, 19]: increase in strength
- sweating [2, 19]: increased sweating
- hygroscopicity [9]: non-hydroscopic
- solubility in water [9]: good solubility and dissolution rate
- state of the powder and moisture uptake [10]: remained a fine powder and gained little moisture

Structure (SMILES): CCCCCCN [tri-hexylamine citrate]
- onset of effect [15]: has a faster effect on human subjects
- change of average reaction time [16]: -70.1 ms
- reduction of average reaction time [16]: 18%
- diastolic pressure, group ([1]; 1000 mg oral vs placebo): no significant difference
- heart rate, group ([1]; 1000 mg oral vs placebo): no significant difference
- systolic blood pressure, group ([1]; 1000 mg oral vs placebo): no significant difference
- self-mood assessment test ([1]; 1000 mg oral vs placebo, scale 1-10): did not show any statistically significant results
- blood pressure ([1]; 1000 mg oral vs placebo, up to 50 minutes after administration): largely unaffected
- state of the salt [8]: suffered from some caking
- time until all was dissolved [17]: About one
- dissolution rate in water [9]: dissolves faster than all other salts of hexylamine in water
- stability of the salt [9]: very stable salt
- focus and energy, self-reported [18]: feeling more focused and energetic
- sense of fatigue during and after exercise [18]: reduced sense of fatigue
- repetitions on knee extensions and bench press ([18]; vs no supplement): greater number of repetitions
- time to exhaustion on the treadmill ([18]; vs no supplement): longer time to exhaustion

From patent US12533327B2, “Hexylamine salts and methods of using hexylamine” (priority 2019, dated 2026)
